ChEMBL document CHEMBL1145489, “Isoniazid induces its own resistance in nonreplicating Mycobacterium tuberculosis” (Antimicrob Agents Chemother, 2007)

Key:
[1] = system: Mycobacterium tuberculosis; assay: Antimicrobial activity against Mycobacterium tuberculosis H37Rv at 0.1 ug/ml after 1 week by […] method; assay type: functional
[2] = system: Mycobacterium tuberculosis; assay: Antimicrobial activity against Mycobacterium tuberculosis H37Rv at 0.1 ug/ml after 2 weeks by […] method; assay type: functional
[3] = system: Mycobacterium tuberculosis; assay: Antimicrobial activity against Mycobacterium tuberculosis H37Rv at 0.1 ug/ml after 3 weeks by […] method; assay type: functional
[4] = system: Mycobacterium tuberculosis; assay: Antimicrobial activity against Mycobacterium tuberculosis H37Rv at 0.1 ug/ml after 4 weeks by […] method; assay type: functional
[5] = system: Mycobacterium tuberculosis; assay: Antimicrobial activity against Mycobacterium tuberculosis H37Rv at 0.4 ug/ml after 1 week by […] method; assay type: functional
[6] = system: Mycobacterium tuberculosis; assay: Antimicrobial activity against Mycobacterium tuberculosis TB7 isolate at 0.4 ug/ml after 1 week; assay type: functional
[7] = system: Mycobacterium tuberculosis; assay: Antimicrobial activity against Mycobacterium tuberculosis TB7 isolate at 0.4 ug/ml after 2 weeks; assay type: functional
[8] = system: Mycobacterium tuberculosis; assay: Antimicrobial activity against Mycobacterium tuberculosis TB7 isolate at 0.4 ug/ml after 3 weeks; assay type: functional
[9] = system: Mycobacterium tuberculosis; assay: Antimicrobial activity against Mycobacterium tuberculosis TB7 isolate at 0.4 ug/ml after 4 weeks; assay type: functional
[10] = system: Mycobacterium tuberculosis; assay: Antimicrobial activity against Mycobacterium tuberculosis TB19 isolate at 0.1 ug/ml after 1 week; assay type: functional
[11] = system: Mycobacterium tuberculosis; assay: Antimicrobial activity against Mycobacterium tuberculosis TB19 isolate at 0.1 ug/ml after 2 weeks; assay type: functional
[12] = system: Mycobacterium tuberculosis; assay: Antimicrobial activity against Mycobacterium tuberculosis TB19 isolate at 0.1 ug/ml after 3 weeks; assay type: functional
[13] = system: Mycobacterium tuberculosis; assay: Antimicrobial activity against Mycobacterium tuberculosis TB19 isolate at 0.1 ug/ml after 4 weeks; assay type: functional
[14] = system: Mycobacterium tuberculosis; assay: Antimicrobial activity against Mycobacterium tuberculosis TB19 isolate at 0.4 ug/ml after 1 week; assay type: functional
[15] = system: Mycobacterium tuberculosis; assay: Antimicrobial activity against Mycobacterium tuberculosis TB19 isolate at 0.4 ug/ml after 2 weeks; assay type: functional
[16] = system: Mycobacterium tuberculosis; assay: Antimicrobial activity against Mycobacterium tuberculosis TB19 isolate at 0.4 ug/ml after 3 weeks; assay type: functional
[17] = system: Mycobacterium tuberculosis; assay: Antimicrobial activity against Mycobacterium tuberculosis TB19 isolate at 0.4 ug/ml after 4 weeks; assay type: functional
[18] = system: Mycobacterium tuberculosis; assay: Antimicrobial activity against Mycobacterium tuberculosis H37Rv at 0.4 ug/ml after 2 weeks by […] method; assay type: functional
[19] = system: Mycobacterium tuberculosis; assay: Antimicrobial activity against Mycobacterium tuberculosis H37Rv at 0.4 ug/ml after 3 weeks by […] method; assay type: functional
[20] = system: Mycobacterium tuberculosis; assay: Antimicrobial activity against Mycobacterium tuberculosis H37Rv at 0.4 ug/ml after 4 weeks by […] method; assay type: functional
[21] = system: Mycobacterium tuberculosis; assay: Antimicrobial activity against Mycobacterium tuberculosis TB7 isolate at 0.1 ug/ml after 2 weeks; assay type: functional
[22] = system: Mycobacterium tuberculosis; assay: Antimicrobial activity against Mycobacterium tuberculosis TB7 isolate at 0.1 ug/ml after 1 week; assay type: functional
[23] = system: Mycobacterium tuberculosis; assay: Antimicrobial activity against Mycobacterium tuberculosis TB7 isolate at 0.1 ug/ml after 3 weeks; assay type: functional
[24] = system: Mycobacterium tuberculosis; assay: Antimicrobial activity against Mycobacterium tuberculosis TB7 isolate at 0.1 ug/ml after 4 weeks; assay type: functional
[25] = system: Mycobacterium tuberculosis; assay: Antimicrobial activity against Mycobacterium tuberculosis TB20 isolate at 0.1 ug/ml after 1 week; assay type: functional
[26] = system: Mycobacterium tuberculosis; assay: Antimicrobial activity against Mycobacterium tuberculosis TB20 isolate at 0.1 ug/ml after 2 weeks; assay type: functional
[27] = system: Mycobacterium tuberculosis; assay: Antimicrobial activity against Mycobacterium tuberculosis TB20 isolate at 0.1 ug/ml after 3 weeks; assay type: functional
[28] = system: Mycobacterium tuberculosis; assay: Antimicrobial activity against Mycobacterium tuberculosis TB20 isolate at 0.1 ug/ml after 4 weeks; assay type: functional
[29] = system: Mycobacterium tuberculosis; assay: Antimicrobial activity against Mycobacterium tuberculosis TB20 isolate at 0.4 ug/ml after 1 week; assay type: functional
[30] = system: Mycobacterium tuberculosis; assay: Antimicrobial activity against Mycobacterium tuberculosis TB20 isolate at 0.4 ug/ml after 2 weeks; assay type: functional
[31] = system: Mycobacterium tuberculosis; assay: Antimicrobial activity against Mycobacterium tuberculosis TB20 isolate at 0.4 ug/ml after 3 weeks; assay type: functional
[32] = system: Mycobacterium tuberculosis; assay: Antimicrobial activity against Mycobacterium tuberculosis TB20 isolate at 0.4 ug/ml after 4 weeks; assay type: functional
[33] = Stability in BACTEC medium at 37 degC upto 4 weeks; assay type: physicochemical; conditions: 672 h
[34] = system: Mycobacterium tuberculosis; assay: Antimicrobial activity against Mycobacterium tuberculosis H37Rv at 2 ug/ml after 1 week by […] method; assay type: functional
[35] = system: Mycobacterium tuberculosis; assay: Antimicrobial activity against Mycobacterium tuberculosis H37Rv at 2 ug/ml after 2 weeks by […] method; assay type: functional
[36] = system: Mycobacterium tuberculosis; assay: Antimicrobial activity against Mycobacterium tuberculosis H37Rv at 2 ug/ml after 3 weeks at by […] method; assay type: functional
[37] = system: Mycobacterium tuberculosis; assay: Antimicrobial activity against Mycobacterium tuberculosis H37Rv at 2 ug/ml after 4 weeks by […] method; assay type: functional

## NNC(=O)c1ccncc1 [ISONIAZID]
[1]
  CFU: 1.2 10^3/ml
[2]
  CFU: 3.1 10^3/ml
[3]
  CFU: 2.4 10^4/ml
[4]
  CFU: 1.22 10^5/ml
[5]
  CFU: 55 mL⁻¹
[6]
  CFU: 0 mL⁻¹
[7]
  CFU: 5.6 10^2/ml
[8]
  CFU: 1.2 10^4/ml
[9]
  CFU: 1.1 10^5/ml
[10]
  CFU: 25 mL⁻¹
[11]
  CFU: 1.1 10^3/ml
[12]
  CFU: 4.8 10^3/ml
[13]
  CFU: 7 10^3/ml
[14]
  CFU: 0 mL⁻¹
[15]
  CFU: 2 10^2/ml
[16]
  CFU: 3.4 10^4/ml
[17]
  CFU: 4.8 10^4/ml
[18]
  CFU: 3.6 10^3/ml
[19]
  CFU: 1.45 10^4/ml
[20]
  CFU: 1.32 10^4/ml
[21]
  CFU: 7.6 10^3/ml
[22]
  CFU: 1.7 10^5/ml
[23]
  CFU: 2.5 10^4/ml
[24]
  CFU: 7.9 10^4/ml
[25]
  CFU: 2.4 10^2/ml
[26]
  CFU: 1.4 10^4/ml
[27]
  CFU: 1.6 10^4/ml
[28]
  CFU: 2.5 10^4/ml
[29]
  CFU: 40 mL⁻¹
[30]
  CFU: 1.3 10^4/ml
[31]
  CFU: 7.5 10^4/ml
[32]
  CFU: 8 10^4/ml
[33]
  Stability: Stable

## CO[C@H]1/C=C/O[C@@]2(C)Oc3c(C)c(O)c4c(O)c(c(/C=N/N5CCN(C)CC5)c(O)c4c3C2=O)NC(=O)/C(C)=C\C=C\[C@H](C)[C@H](O)[C@@H](C)[C@@H](O)[C@@H](C)[C@H](OC(C)=O)[C@@H]1C [RIFAMPIN]
[34]
  CFU: 0 mL⁻¹
[35]
  CFU: 0 mL⁻¹
[36]
  CFU: 0 mL⁻¹
[37]
  CFU: 0 mL⁻¹
